Tested on: Rattus norvegicus
Details: short-term, duration: 28 days, oral, gavage, Sprague-Dawley

Structure (SMILES): O=C(O)C(F)(F)C(F)(F)C(F)(F)C(F)(F)C(F)(F)C(F)(F)C(F)(F)C(F)(F)F [Perfluorononanoic acid]
- NOEL (F, Organ weights_Thymus - Relative): 25 mg/kg-day
- NOEL (F, Organ weights_Thyroid gland - Absolute): 25 mg/kg-day
- NOEL (F, Organ weights_Thyroid gland - Relative): 25 mg/kg-day
- LOEL (F, body weight): 6.25 mg/kg-day
- LOEL (M, Clinical chemistry_Alanine aminotransferase): 1.25 mg/kg-day
- LOEL (M, Clinical chemistry_Albumin): 1.25 mg/kg-day
- LOEL (M, Clinical chemistry_Albumin/globulin ratio): 0.625 mg/kg-day
- LOEL (M, Clinical chemistry_Alkaline phosphatase): 1.25 mg/kg-day
- LOEL (M, Clinical chemistry_Aspartate aminotransferase): 1.25 mg/kg-day
- LOEL (M, Clinical chemistry_Cholesterol): 0.625 mg/kg-day
- NOEL (M, Clinical chemistry_Creatinine kinase): 10 mg/kg-day
- LOEL (M, Clinical chemistry_Direct bilirubin): 1.25 mg/kg-day
- LOEL (M, Clinical chemistry_Free thyroxine): 0.625 mg/kg-day
- LOEL (M, Clinical chemistry_Globulin): 0.625 mg/kg-day
- LOEL (M, Clinical chemistry_Indirect bilirubin): 1.25 mg/kg-day
- LOEL (M, Clinical chemistry_Sorbitol dehydrogenase): 1.25 mg/kg-day
- LOEL (M, Clinical chemistry_Testosterone): 2.5 mg/kg-day
- LOEL (M, Clinical chemistry_Thyroid stimulating hormone): 2.5 mg/kg-day
- LOEL (M, Clinical chemistry_Total bile acids): 0.625 mg/kg-day
- LOEL (M, Clinical chemistry_Total bilirubin): 1.25 mg/kg-day
- LOEL (M, Clinical chemistry_Total protein): 0.625 mg/kg-day
- LOEL (M, Clinical chemistry_Total thyroxine): 0.625 mg/kg-day
- LOEL (M, Clinical chemistry_Total triiodothyronine): 2.5 mg/kg-day
- LOEL (M, Clinical chemistry_Triglycerides): 0.625 mg/kg-day
- LOEL (M, Gene expression_Acox1): 0.625 mg/kg-day
- LOEL (M, Gene expression_Acyl-CoA oxidase): 0.625 mg/kg-day
- LOEL (M, Gene expression_Cyp2b1): 0.625 mg/kg-day
- LOEL (M, Gene expression_Cyp2b2): 0.625 mg/kg-day
- LOEL (M, Gene expression_Cyp4a1): 0.625 mg/kg-day
- NOEL (M, Hematology_Erythrocytes): 10 mg/kg-day
- NOEL (M, Hematology_Hematocrit): 10 mg/kg-day
- NOEL (M, Hematology_Hemoglobin): 10 mg/kg-day
- LOEL (M, Hematology_Mean corpuscular hemoglobin concentration): 2.5 mg/kg-day
- LOEL (M, Hematology_Mean corpuscular volume): 2.5 mg/kg-day
- NOEL (M, Hematology_Platelets): 10 mg/kg-day
- LOEL (M, Hematology_Reticulocytes): 0.625 mg/kg-day
- LOEL (M, Nonneoplastic effects_Bone marrow - Hypocellularity): 2.5 mg/kg-day
- LOEL (M, Nonneoplastic effects_Epididymis - Duct, exfoliated germ cell): 2.5 mg/kg-day
- LOEL (M, Nonneoplastic effects_Epididymis - Epithelium, apoptosis): 5 mg/kg-day
- LOEL (M, Nonneoplastic effects_Epididymis - Hypospermia): 5 mg/kg-day
- LOEL (M, Nonneoplastic effects_Forestomach - Epithelium, hyperplasia): 2.5 mg/kg-day
- LOEL (M, Nonneoplastic effects_Forestomach - Inflammation, chronic active): 2.5 mg/kg-day
- NOEL (M, Nonneoplastic effects_Kidney - Nephropathy, chronic progressive): 10 mg/kg-day
- LOEL (M, Nonneoplastic effects_Liver - Hepatocyte, Necrosis): 2.5 mg/kg-day
- LOEL (M, Nonneoplastic effects_Liver - Hepatocyte, cytoplasmic alteration): 0.625 mg/kg-day
- LOEL (M, Nonneoplastic effects_Liver - Hepatocyte, hypertrophy): 0.625 mg/kg-day
- LOEL (M, Nonneoplastic effects_Liver - Hepatocyte, vacuolization cytoplasmic): 1.25 mg/kg-day
- LOEL (M, Nonneoplastic effects_Lymph nodes - Mandibular, atrophy): 5 mg/kg-day
- LOEL (M, Nonneoplastic effects_Lymph nodes - Mesenteric, atrophy): 5 mg/kg-day
- NOEL (M, Nonneoplastic effects_Nose - Olfactory epithelium, degeneration): 10 mg/kg-day
- NOEL (M, Nonneoplastic effects_Nose - Olfactory epithelium, hyperplasia): 10 mg/kg-day
- NOEL (M, Nonneoplastic effects_Nose - Olfactory epithelium, inflammation, suppurative): 10 mg/kg-day
- NOEL (M, Nonneoplastic effects_Nose - Respiratory epithelium, hyperplasia): 10 mg/kg-day
- NOEL (M, Nonneoplastic effects_Nose - Respiratory epithelium, inflammation, chronic active): 10 mg/kg-day
- LOEL (M, Nonneoplastic effects_Spleen - Atrophy): 5 mg/kg-day
- NOEL (M, Nonneoplastic effects_Spleen - Extramedullary hematopoiesis, increased): 10 mg/kg-day
- LOEL (M, Nonneoplastic effects_Testes - Germinal epithelium, degeneration): 2.5 mg/kg-day
- LOEL (M, Nonneoplastic effects_Testes - Interstitial cell, atrophy): 2.5 mg/kg-day
- LOEL (M, Nonneoplastic effects_Testes - Seminiferous tubule, spermatid retention): 2.5 mg/kg-day
- LOEL (M, Nonneoplastic effects_Thymus - Atrophy): 2.5 mg/kg-day
- NOEL (M, Nonneoplastic effects_Thymus - Lymphocyte, apoptosis): 10 mg/kg-day
- NOEL (M, Nonneoplastic effects_Thyroid gland - Follicular cell hypertrophy): 10 mg/kg-day
- LOEL (M, Organ weights_Liver - Absolute): 0.625 mg/kg-day
- LOEL (M, Organ weights_Liver - Relative): 0.625 mg/kg-day
- LOEL (M, Organ weights_R. adrenal gland - Absolute): 0.625 mg/kg-day
- LOEL (M, Organ weights_R. adrenal gland - Relative): 2.5 mg/kg-day
- LOEL (M, Organ weights_R. kidney - Absolute): 2.5 mg/kg-day
- LOEL (M, Organ weights_R. kidney - Relative): 0.625 mg/kg-day
- LOEL (M, Organ weights_R. testis - Absolute): 2.5 mg/kg-day
- LOEL (M, Organ weights_Spleen - Absolute): 1.25 mg/kg-day
- LOEL (M, Organ weights_Spleen - Relative): 1.25 mg/kg-day
- LOEL (M, Organ weights_Thymus - Absolute): 1.25 mg/kg-day
- LOEL (M, Organ weights_Thymus - Relative): 1.25 mg/kg-day
- LOEL (M, Organ weights_Thyroid gland - Absolute): 2.5 mg/kg-day
- LOEL (M, Organ weights_Thyroid gland - Relative): 2.5 mg/kg-day
- LOEL (M, Reproductive toxicity_Altered sperm parameters): 1.25 mg/kg-day
- LOEL (M, body weight): 1.25 mg/kg-day

— EPA's ToxValDB 9.5
